Key:
[1] = molecular target: T1, Human C5 (Homo sapiens, UniProt P01031); experiment: Surface plasmon resonance (SPR), compounds on immobilized human C5 (Example 2, Table 5); format: binding; settings: lowest value where a range of compound concentrations were analyzed
T1 construct: purchased Complement Technology

[2] = molecular target: T2, purified human C5 (Homo sapiens, UniProt P01031); experiment: Red blood cell hemolysis assay, optical, absorbance 412 nm (Example 3, Table 6); format: cell-based; settings: antibody-sensitized sheep erythrocytes, 1.5% human C5 depleted sera, 0.5 nM human C5; average where replicates
T2 sequence (P01031 19-1676): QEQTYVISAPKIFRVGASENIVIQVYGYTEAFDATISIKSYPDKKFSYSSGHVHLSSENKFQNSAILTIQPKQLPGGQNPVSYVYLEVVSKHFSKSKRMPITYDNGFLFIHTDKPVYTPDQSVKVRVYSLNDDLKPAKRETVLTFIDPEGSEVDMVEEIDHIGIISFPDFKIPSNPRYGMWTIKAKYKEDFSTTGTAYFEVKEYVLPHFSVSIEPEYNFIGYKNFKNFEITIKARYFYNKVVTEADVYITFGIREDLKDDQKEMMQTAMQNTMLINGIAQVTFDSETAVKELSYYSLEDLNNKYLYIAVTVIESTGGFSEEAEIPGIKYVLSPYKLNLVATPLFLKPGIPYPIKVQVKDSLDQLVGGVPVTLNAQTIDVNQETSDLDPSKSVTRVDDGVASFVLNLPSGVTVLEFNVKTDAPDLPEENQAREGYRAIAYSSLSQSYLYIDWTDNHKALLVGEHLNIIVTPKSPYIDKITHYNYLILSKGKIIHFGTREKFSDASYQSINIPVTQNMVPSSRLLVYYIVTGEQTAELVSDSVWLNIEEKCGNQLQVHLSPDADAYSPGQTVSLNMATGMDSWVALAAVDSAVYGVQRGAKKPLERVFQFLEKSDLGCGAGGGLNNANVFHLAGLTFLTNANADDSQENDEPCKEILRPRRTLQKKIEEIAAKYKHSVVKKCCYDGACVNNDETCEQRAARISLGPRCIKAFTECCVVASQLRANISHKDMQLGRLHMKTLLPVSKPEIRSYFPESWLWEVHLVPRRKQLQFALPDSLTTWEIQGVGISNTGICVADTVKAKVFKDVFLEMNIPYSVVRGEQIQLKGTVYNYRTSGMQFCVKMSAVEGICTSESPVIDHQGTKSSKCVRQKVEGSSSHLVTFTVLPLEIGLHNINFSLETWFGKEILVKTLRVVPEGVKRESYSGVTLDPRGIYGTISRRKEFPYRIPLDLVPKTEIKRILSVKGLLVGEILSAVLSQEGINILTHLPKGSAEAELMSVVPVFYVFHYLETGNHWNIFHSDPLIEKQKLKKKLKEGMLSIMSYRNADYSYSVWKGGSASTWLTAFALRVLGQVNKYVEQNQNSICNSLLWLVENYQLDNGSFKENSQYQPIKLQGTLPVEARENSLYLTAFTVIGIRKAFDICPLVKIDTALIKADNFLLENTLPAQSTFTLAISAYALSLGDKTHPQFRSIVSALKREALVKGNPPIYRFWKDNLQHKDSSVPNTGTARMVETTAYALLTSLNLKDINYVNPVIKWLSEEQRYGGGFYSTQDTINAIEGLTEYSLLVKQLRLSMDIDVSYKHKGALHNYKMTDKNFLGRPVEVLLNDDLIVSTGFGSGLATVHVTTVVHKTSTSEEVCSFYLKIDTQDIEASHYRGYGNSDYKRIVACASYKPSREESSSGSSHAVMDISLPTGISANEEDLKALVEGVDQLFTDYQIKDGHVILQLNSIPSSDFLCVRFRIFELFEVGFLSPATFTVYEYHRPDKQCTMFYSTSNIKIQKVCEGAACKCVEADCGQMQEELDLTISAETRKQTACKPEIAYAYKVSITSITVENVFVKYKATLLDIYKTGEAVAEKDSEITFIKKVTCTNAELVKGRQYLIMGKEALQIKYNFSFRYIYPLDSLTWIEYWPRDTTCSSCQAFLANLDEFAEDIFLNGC

[3] = molecular target: T2, purified human C5; experiment: Red blood cell (RBC) hemolysis assay, optical, absorbance 412 nm (Example 10, Table 19); format: cell-based; settings: antibody-sensitized sheep erythrocytes, […] human C5 depleted sera
[4] = molecular target: T1, Human C5; experiment: Surface plasmon resonance (SPR), immobilized human C5 (Example 9, Table 18); format: binding
Source text: Morrison and Boyd in “Organic Chemistry”, 6th edition, Prentice Hall (1992)] and validated for proper structure by mass spectrometry.

[5] = 0.5 nM purified human C5, absorbance 412 nm, read-out: RBC Hemolysis IC50
[6] = immobilized human C5, equilibrium dissociation constant, read-out: SPR C5 EQ KD
[7] = 0.5 nM human C5, read-out: IC50

T1 sequence (P01031 19-1676): as above

Row | SMILES | Kd [1] | IC50 [3, 5] | Kd [4, 6] | other results
1 | COc1ccc(NC(=O)NCc2ccccc2F)cc1OCCCC(C)C [SM0058] | 500 nM | – | – | IC50 [2]: 4090 nM
2 | COc1ccc(NC(=O)NCc2ccccc2CO)cc1OCCCC(C)C [SM0050] | 102 nM | – | – | IC50 [2]: 2870 nM
3 | COc1ccc(NC(=O)NC(CO)c2cccc(F)c2)cc1OCCCC(C)C (stereo not drawn) [SM0018] | 114 nM | – | – | IC50 [2]: 420 nM
4 | COc1ccc(NC(=O)N[C@@H](CO)C(C)(C)C)cc1OCCCC(C)C [SM0091] | 990 nM | – | – | –
5 | COc1ccc(NC(=O)NCC(O)c2ccccn2)cc1OCCCC(C)C (stereo not drawn) [SM0078] | 3600 nM | – | – | IC50 [2]: 12600 nM
6 | CNC(=O)[C@H](NC(=O)Nc1ccc(OC)c(OCCCC(C)C)c1)c1ccccc1 [SM0093] | 240 nM | – | – | –
7 | CCCCCc1cccc(NC(=O)N[C@@H](CO)c2ccccc2)c1 [SM0087] | 9900 nM | – | – | IC50 [2]: 16700 nM
8 | COc1ccc(NC(=O)N[C@@H](CO)c2ccccc2)cc1OCc1ccncc1 [SM0098] | 3800 nM | – | – | –
9 | COc1ccc(NC(=O)NCc2cncnc2)cc1OCCCC(C)C [SM0090] | 2100 nM | – | – | –
10 | COc1ccc(NC(=O)N[C@@H](CO)c2ccccc2)cc1OCCC1CCCC1 [SM0019] | 39 nM | – | – | IC50 [2]: 450 nM
11 | COc1ccc(NC(=O)NCC2CCC(F)(F)CC2)cc1OCCCC(C)C [SM0111] | 4700 nM | – | – | –
12 | COC[C@H](NC(=O)Nc1ccc(OC)c(OCCCC(C)C)c1)c1ccccc1 [SM0120] | 9500 nM | – | – | –
13 | COc1ccc(NC(=O)NCc2ccccc2CN(C)C)cc1OCCCC(C)C [SM0100] | 120 nM | – | – | –
14 | COc1ccc(NC(=O)N(C)CCO)cc1OCCCC(C)C [SM0109] | 3800 nM | – | – | –
15 | COc1ccc(NC(=O)NC(c2ccccc2F)C(C)O)cc1OCCCC(C)C (stereo not drawn) [SM0082] | – | – | – | IC50 [2]: 14500 nM
16 | CCCCn1ncc2ccc(NC(=O)N[C@@H](CO)c3ccccc3)cc21 [SM0096, 1-(1-butylindazol-6-yl)-3-[(1R)-2-hydroxy-1-phenyl-ethyl]urea] | 2100 nM | – | – | –
17 | COc1ccc(NC(=O)N[C@@H](CO)c2ccccc2)cc1OCCC1CC1 [SM0101] | 150 nM | – | – | –
18 | COc1ccc(NC(=O)NCc2ccc(Br)cc2)cc1OCCCC(C)C [SM0089] | 3100 nM | – | – | –
19 | COc1cccc(C(CO)NC(=O)Nc2ccc(OC)c(OCCCC(C)C)c2)c1 (stereo not drawn) [SM0028] | – | – | – | IC50 [2]: 896 nM
20 | COc1ccc(NC(=O)NCc2ccc3ccccc3n2)cc1OCCCC(C)C [SM0086] | – | – | – | IC50 [2]: 16600 nM
21 | COc1ccc(NC(=O)NC2CCCCC2O)cc1OCCCC(C)C (stereo not drawn) [SM0097] | 2200 nM | – | – | –
22 | COc1ccc(NC(=O)N[C@@H](CO)c2ccccc2)cc1OCc1ccccc1 [SM0088] | – | – | – | IC50 [2]: 18400 nM
23 | COc1ccc(NC(=O)N[C@@H](CO)c2ccccc2)cc1OCCN1CCC(O)CC1 [SM0094] | 380 nM | – | – | –
24 | COc1ccc(NC(=O)N[C@H]2c3ccccc3C[C@@H]2O)cc1OCCCC(C)C [SM0103] | 1800 nM | – | – | –
25 | COc1ccc(NC(=O)NC(CO)c2cnn(C)c2)cc1OCCCC(C)C (stereo not drawn) [SM0055] | – | – | – | IC50 [2]: 3450 nM

Row | SMILES | Kd [1] | IC50 [3, 5] | Kd [4, 6] | other results
26 | COc1ccc(NC(=O)NCc2cccc(S(C)(=O)=O)c2)cc1OCCCC(C)C [SM0079] | – | – | – | IC50 [2]: 12700 nM
27 | COc1ccc(NC(=O)NC(CN(C)C)c2ccccc2)cc1OCCCC(C)C (stereo not drawn) [SM0121] | 9500 nM | – | – | –
28 | CCCOc1cc(NC(=O)O[C@@H](C)c2ccccc2)ccc1OC [SM0110] | 3900 nM | – | – | –
29 | COc1ccc(NC(=O)NC(CO)c2ccc(F)cc2)cc1OCCCC(C)C (stereo not drawn) [SM0020] | – | – | – | IC50 [2]: 478 nM
30 | COc1ccc(NC(=O)N[C@@H](CO)c2ccccc2)cc1Br [SM0060] | – | – | – | IC50 [2]: 4470 nM
31 | COc1ccc(NC(=O)NCCc2ccccc2)cc1OCCCC(C)C [SM0117] | 7600 nM | – | – | –
32 | COc1ccc(CNC(=O)Nc2ccc(OC)c(OCCCC(C)C)c2)cc1 [SM0041] | – | – | – | IC50 [2]: 1800 nM
33 | COc1ccc(NC(=O)N[C@@H](CO)c2ccccc2)cc1OCCN(C)C [SM0105, 1-[3-[2-(dimethylamino)ethoxy]-4-methoxy-phenyl]-3-[(1R)-2-hydroxy-1-phenyl-ethyl]urea] | 2600 nM | – | – | –
34 | CCCCCCOc1ccc(NC(=O)N[C@@H](CO)c2ccccc2)cc1 [SM0112] | 5500 nM | – | – | –
35 | COc1ccc(NC(=O)N[C@@H](CO)c2ccccc2)cc1OCCCC#N [SM0119] | 830 nM | – | – | –
36 | CCCCN(C)C(=O)c1cccc(NC(=O)N[C@@H](CO)c2ccccc2)c1 [SM0116, N-butyl-3-[[(1R)-2-hydroxy-1-phenyl-ethyl]carbamoylamino]-N-methyl-benzamide] | 690 nM | – | – | –
37 | COc1ccc(NC(=O)N[C@@H](CO)c2ccccc2)cc1OCc1cncnc1 [SM0114, 1-[(1R)-2-hydroxy-1-phenyl-ethyl]-3-[4-methoxy-3-(pyrimidin-5-ylmethoxy)phenyl] urea] | 6400 nM | – | – | –
38 | O=C(Nc1ccc2c(c1)OC(F)(F)O2)N[C@@H](CO)c1ccccc1 [SM0099] | 5700 nM | – | – | –
39 | COc1ccc(NC(=O)N[C@@H](CO)c2ccccc2)cc1OCc1ccccn1 [SM0095] | 1600 nM | – | – | –
40 | COc1ccc(NC(=O)N[C@@H](CO)c2ccccc2)cc1OCCN1CCN(C)CC1 [SM0115] | 6700 nM | – | – | –
41 | COc1ccc(NC(=O)NC(c2ccccc2F)[C@@H](O)CO)cc1OCCCC(C)C (stereo partly drawn) [SM0106] | 2700 nM | – | – | –
42 | COc1ccc(NC(=O)N[C@H](CCO)c2ccccc2)cc1OCCCC(C)C [SM0118] | 8100 nM | – | – | –
43 | COc1ccc(NC(=O)N[C@@H](CO)c2ccccc2)cc1OCC(F)(F)F [SM0085] | – | – | – | IC50 [2]: 16100 nM
44 | COc1ccc(NC(=O)NCc2ccnc3c2ccn3CCCN(C)C)cc1OCCCC(C)C [Compound C5INH-0491] | – | 83.5 nM | 62 nM | –
45 | COc1cc(CNC(C)=O)c(NC(=O)NCc2ccnc3[nH]ccc23)cc1OCCCC(C)C [Compound C5INH-0504] | – | 318 nM | 316 nM | –
46 | COc1ccc(NC(=O)NCc2ccnc(N)c2)cc1OCCCC(C)C [Compound C5INH-0333] | – | 442 nM | 98 nM | –
47 | COc1cccc(C2CCCN2C(=O)Nc2ccc(OC)c(OCCCC(C)C)c2)c1 (stereo not drawn) [Compound C5INH-0388] | – | 970 nM | 970 nM | –
48 | COc1ccc(NC(=O)N[C@@H](CO)c2ccccc2)cc1OCCCCl [SM0051] | – | – | – | IC50 [2]: 3060 nM
49 | COc1ccc(NC(=O)N[C@@H](C)c2ccccc2)cc1OCC(C)(C)N(C)C [SM0107] | 3200 nM | – | – | –
50 | COc1ccc(NC(=O)NC(CO)c2cccc3[nH]ncc23)cc1OCCCC(C)C (stereo not drawn) [Compound C5INH-0366] | – | 762 nM | 82 nM | –

Row | SMILES | Kd [1] | IC50 [3, 5] | Kd [4, 6] | other results
51 | COc1ccc(NC(=O)N[C@@H](CO)c2ccccc2)cc1C(O)CCCC(C)C (stereo partly drawn) [Compound C5INH-0367] | – | 475 nM | 102 nM | –
52 | COc1ccc(NC(=O)NCc2ccnc(NCCN(C)C)c2)cc1OCCCC(C)C [Compound C5INH-0389] | – | 1310 nM | 420 nM | –
53 | COc1ccc(NC(=O)N[C@@H](CO)c2ccccc2O)cc1OCCCC(C)C [Compound C5INH-0395] | – | 13.6 nM | 9 nM | IC50 [3, 7]: < 20 nM; Kd ([4]; SPR, human C5 immobilized, read-out: equilibrium dissociation constant for interaction with C5): < 20 nM
54 | COc1cc(F)ccc1CNC(=O)Nc1ccc(OC)c(OCCCC(C)C)c1 [Compound C5INH-0298] | – | 269 nM | 550 nM | –
55 | COc1ccc(NC(=O)NCc2ccc(N3CCN(C)CC3)cc2)cc1OCCCC(C)C [Compound C5INH-0420] | – | 403 nM | 800 nM | –
56 | COc1ccc(NC(=O)N[C@@H](C)c2ccc(Br)cc2)cc1OCCCC(C)C [SM0108] | 3200 nM | – | – | –
57 | COc1ccc(NC(=O)NC(CO)Cc2ccccc2)cc1OCCCC(C)C (stereo not drawn) [SM0092] | 540 nM | – | – | –
58 | CC(C)CCCOc1cc(NC(=O)N[C@@H](CO)c2ccccc2)ccc1N [Compound C5INH-0431] | – | 3790 nM | 1160 nM | –
59 | COc1ccc(NC(=O)N[C@@H](C(N)=O)c2ccccc2)cc1OCCCC(C)C [SM0102] | 1700 nM | – | – | –
60 | COc1ccc(NC(=O)NCc2cccc3cccnc23)cc1OCCCC(C)C [Compound C5INH-0450] | – | 298 nM | 885 nM | –
61 | COc1ccc(NC(=O)NCc2ccncc2OCCCN(C)C)cc1OCCCC(C)C [Compound C5INH-0402] | – | 1340 nM | 261 nM | –
62 | COc1ccc(NC(=O)NCc2ccc3c(c2)OCCO3)cc1OCCCC(C)C [Compound C5INH-0340] | – | 992 nM | 75 nM | –
63 | COc1ccc(NC(=O)NCc2cccc(CN3CCCC3=O)c2)cc1OCCCC(C)C [Compound C5INH-0323] | – | 1920 nM | 731 nM | –
64 | CNc1ccc(CNC(=O)Nc2ccc(OC)c(OCCCC(C)C)c2)cc1 [Compound C5INH-0443] | – | 1990 nM | 300 nM | –
65 | COc1ccc(NC(=O)NCc2ccc(S(C)(=O)=O)cc2)cc1OCCCC(C)C [SM0113] | 601 nM | – | – | –
66 | COc1ccc(NC(=O)NCc2cccc3c2ncn3CCN(C)C)cc1OCCCC(C)C [Compound C5INH-0536] | – | 175 nM | 32 nM | –
67 | COc1ccc(C2CCCN2C(=O)Nc2ccc(OC)c(OCCCC(C)C)c2)cc1 (stereo not drawn) [Compound C5INH-0387] | – | 577 nM | 320 nM | –
68 | COc1ccc(NC(=O)NC(CO)c2cccc(CN)c2)cc1OCCCC(C)C (stereo not drawn) [Compound C5INH-0373] | – | 1520 nM | 293 nM | –
69 | COc1cc(CNC(C)=O)c(NC(=O)NCc2ccnc3c2ccn3CCCN(C)C)cc1OCCCC(C)C [Compound C5INH-0547] | – | 287 nM | 42 nM | –
70 | COc1ccc(NC(=O)NC(CO)c2cccnc2OC)cc1OCCCC(C)C (stereo not drawn) [Compound C5INH-0316] | – | 60 nM | 58 nM | –
71 | COc1ccc(NC(=O)NC(CO)c2cccc3c2ccn3C)cc1OCCCC(C)C (stereo not drawn) [Compound C5INH-0463] | – | 808 nM | 280 nM | –
72 | COc1ccc(NC(=O)NC(CO)c2cccc(OC)c2O)cc1OCCCC(C)C (stereo not drawn) [Compound C5INH-0486] | – | – | 25 nM | IC50 [3, 7]: 3 nM
73 | COc1ccc(NC(=O)NC(CO)c2cccc(CNC(=O)OC(C)(C)C)c2)cc1OCCCC(C)C (stereo not drawn) [Compound C5INH-0372] | – | 3270 nM | 670 nM | –

Reference: patent publication US20230115176A1 (Ra Pharmaceuticals, Inc., priority 2019, published 2023)
